Results on two compounds are retold here after article PMC12472947 (Pharmaceuticals, 2025).

Molecules are shown by their SMILES. “Also recorded” adds a separate entry of the source. Marks after values point to notes of the source that are not given here.

Data set [1] has as its target electric eel AChE [EeAChE] (Electrophorus electricus, UniProt O42275). Kind of data set: biochemical. It is filed as biochemical. The settings on record: for IC50: Electric eel AChE, Ellman method, read-out: IC50(nM) ± SD AChE (EeAChE); for SI: Selectivity Index = EqBChE IC50/EeAChE IC50. (In general: DTNB colorimetry detects thiols as they appear.)
The target of the next data set is T1, hMAO-A (Homo sapiens, UniProt P21397).
T1 construct: purchased Sigma-Aldrich, Gillingham, UK
T1 sequence (P21397 1-527): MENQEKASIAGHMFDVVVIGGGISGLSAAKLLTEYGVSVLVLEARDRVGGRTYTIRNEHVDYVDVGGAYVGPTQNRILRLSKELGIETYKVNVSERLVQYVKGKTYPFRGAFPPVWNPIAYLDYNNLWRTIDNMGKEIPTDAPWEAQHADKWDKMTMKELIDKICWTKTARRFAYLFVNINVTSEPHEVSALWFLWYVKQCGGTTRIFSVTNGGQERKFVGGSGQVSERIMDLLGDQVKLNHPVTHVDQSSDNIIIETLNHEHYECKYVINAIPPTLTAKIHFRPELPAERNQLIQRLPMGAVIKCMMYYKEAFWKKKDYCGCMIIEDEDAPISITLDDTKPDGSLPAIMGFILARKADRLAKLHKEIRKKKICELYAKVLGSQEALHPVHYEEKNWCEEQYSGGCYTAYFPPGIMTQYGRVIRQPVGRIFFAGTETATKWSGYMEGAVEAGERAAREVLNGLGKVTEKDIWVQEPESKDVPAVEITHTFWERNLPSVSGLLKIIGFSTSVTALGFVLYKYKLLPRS
Kind of data set: MAO-A inhibition, fluorometric Amplex Red assay. The data set is classed as biochemical. On the procedure: The activity of human recombinant membrane-bound monoamine oxidase isoforms A and B (MAO-A/B) (Sigma-Aldrich, Gillingham, UK) in 50 mM potassium phosphate buffer (pH 7.5) was determined by measuring hydrogen peroxide production coupled to the fluorescent dye Amplex Red (Sigma-Aldrich, UK) at a final concentration of 50 μM, in the presence of horseradish peroxidase (HRP, 2.5 U/mL). This coupling reaction generates the fluorescent product resorufin, which was quantified at 30 °C using a fluorescence plate reader. […].
(§1) Reactions were initiated by adding the substrate and dye after a 30 min preincubation of the inhibitor with the enzyme. Data were analyzed using a three-parameter equation in GraphPad Prism 7.0 (San Diego, USA). Each reported value represents the mean of at least two independent determinations.

Data set [2] concerns SH-SY5Y neuroblastoma cells. Kind of data set: Cytotoxicity (neurotoxicity) MTT assay in SH-SY5Y. It is filed as cell-based. The settings on record: up to 50 µM. On the procedure:
(§2) The immortalized human neuroblastoma cell line (SH-SY5Y–ATCC: CRL-2226; BCRJ:0223) was used to evaluate cytotoxicity. The cell line was cultured in Dulbecco’s Modified Eagle’s Medium and F12 in a 1:1 ratio (DMEM:F12; Sigma-Aldrich code 0697, Brazil) supplemented with 10% fetal bovine serum (FBS; Sigma-Aldrich code F2442, Brazil) and 1% streptomycin/penicillin (10,000 U/mL and 10,000 μg/mL, respectively; Nova Biotecnologia code BR30110-01, Cotia, SP, Brazil) and incubated at 37 °C with 5% CO2. The culture medium was replaced every 48 h, until the cells reached semi-confluence (≥70%). Cell passage was carried out with the aid of trypsin-EDTA/0.25% solution (Nova Biotecnologia, Brazil) and divided between 5 or 8 mL culture volumes depending on the respective bottles (25 or 75 cm^2) used.
(§3) The in vitro cytotoxicity assay evaluated cell viability using the [3-(4,5-dimethylthiazol-2yl)-2,5-diphenyl tetrazolium] bromide (MTT) reduction assay. Cells were seeded at an initial density of 5.0 × 10^4 cells/well in 96-well plates in a volume of 200 µL. […] In the next step, the culture medium was replaced by the sample solution previously described (Section 3.4.2). After 24 h exposure, the medium was replaced with 100 μL of MTT in phosphate-buffer saline (PBS), pH 7.4, at a concentration of 0.5 mg.mL^−1/well and the plates were incubated for an additional 3 h. Then, the MTT solution was removed, and 100 μL of DMSO was added to solubilize the formazan crystals. The cell viability was measured by absorbance at 562 nm using a Microplate Absorbance Reader (Kasuaki, Brazil). All concentrations tested were evaluated in nine replicates (n = 9). The variation in results was observed using ANOVA followed by Tukey’s test for multiple comparisons through GraphPad Prism v5^TM with a significance level of p < 0.05.

Data set [3] can be described thus: Cytotoxicity (neurotoxicity) MTT assay in SH-SY5Y. The settings on record: human, SH-SY5Y neuroblastoma cells; for viability at 24 h, 12.5 µM / viability at 24 h, 25 µM / viability at 24 h, 50 µM: MTT, read-out: Cell viability (% of control); for viability at 24 h: up to 25 μM, read-out: cell viability. It is filed as cell-based. On the procedure: as §2, §3
A general note: Formazan colour is commonly taken as a measure of viable cells.

A further data set has as its target T2, hMAO-B (Homo sapiens, UniProt P27338).
T2 construct: purchased Sigma-Aldrich, Gillingham, UK
T2 sequence (P27338 1-520): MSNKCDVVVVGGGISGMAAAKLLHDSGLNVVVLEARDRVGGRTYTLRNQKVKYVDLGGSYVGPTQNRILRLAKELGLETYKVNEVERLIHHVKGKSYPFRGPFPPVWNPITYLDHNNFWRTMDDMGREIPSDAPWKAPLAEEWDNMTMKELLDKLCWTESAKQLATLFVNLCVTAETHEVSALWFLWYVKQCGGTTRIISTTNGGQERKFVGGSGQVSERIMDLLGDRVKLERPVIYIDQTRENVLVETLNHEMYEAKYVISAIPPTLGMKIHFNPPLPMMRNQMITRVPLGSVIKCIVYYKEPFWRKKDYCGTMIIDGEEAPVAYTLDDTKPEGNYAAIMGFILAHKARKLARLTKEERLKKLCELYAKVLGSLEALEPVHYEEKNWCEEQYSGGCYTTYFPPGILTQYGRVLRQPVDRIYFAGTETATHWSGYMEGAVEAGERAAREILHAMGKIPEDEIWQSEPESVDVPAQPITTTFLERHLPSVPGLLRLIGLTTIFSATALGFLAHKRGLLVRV
Kind of data set: biochemical. It is filed as biochemical. On the procedure: The activity of human recombinant membrane-bound monoamine oxidase isoforms A and B (MAO-A/B) (Sigma-Aldrich, Gillingham, UK) in 50 mM potassium phosphate buffer (pH 7.5) was determined by measuring hydrogen peroxide production coupled to the fluorescent dye Amplex Red (Sigma-Aldrich, UK) at a final concentration of 50 μM, in the presence of horseradish peroxidase (HRP, 2.5 U/mL). This coupling reaction generates the fluorescent product resorufin, which was quantified at 30 °C using a fluorescence plate reader.
as §1

Sequence of electric eel AChE [EeAChE] (O42275 24-633): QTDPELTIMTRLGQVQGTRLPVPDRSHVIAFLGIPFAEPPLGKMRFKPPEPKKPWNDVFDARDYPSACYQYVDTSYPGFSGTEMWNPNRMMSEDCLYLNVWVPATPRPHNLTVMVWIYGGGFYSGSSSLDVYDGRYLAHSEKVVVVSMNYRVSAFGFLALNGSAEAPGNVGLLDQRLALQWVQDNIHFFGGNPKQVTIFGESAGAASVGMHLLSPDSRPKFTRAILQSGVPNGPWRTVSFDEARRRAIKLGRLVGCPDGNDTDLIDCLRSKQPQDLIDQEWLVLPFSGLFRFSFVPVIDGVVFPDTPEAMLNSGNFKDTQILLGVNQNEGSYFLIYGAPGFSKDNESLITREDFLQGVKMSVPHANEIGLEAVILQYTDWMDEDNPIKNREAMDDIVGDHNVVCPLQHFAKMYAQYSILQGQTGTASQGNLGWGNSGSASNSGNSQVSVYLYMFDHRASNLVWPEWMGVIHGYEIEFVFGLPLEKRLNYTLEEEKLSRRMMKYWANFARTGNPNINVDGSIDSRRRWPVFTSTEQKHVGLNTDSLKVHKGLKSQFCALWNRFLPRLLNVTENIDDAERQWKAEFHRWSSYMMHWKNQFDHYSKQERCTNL

Usually IC50 stands for the concentration that inhibits the measured activity by half. The term inhibition denotes the relative decrease from the control value, in per cent. As a reminder, the viability is a read-out of living cells in per cent, often relative to untreated cells. On to `O=c1oc2cc(OCCN3CCCCC3)ccc2cc1-c1cn(Cc2ccccc2)nn1` [Compound 1h, 3-(1-Benzyl-1H-1,2,3-triazol-4-yl)-7-(2-(piperidin-1-yl)ethoxy)-2H-chromen-2-one], for which, in data set [1], the IC50 was 6.03 ± 0.62 nM and the SI is reported as 632. The inhibition at 1 µM at hMAO-A (test concentration of 1 µM, read-out: Percentage of MAO-A inhibition ± SEM) is 5.2 ± 1.9%. For the same compound, the neurotoxicity result in data set [2] is recorded as “non-neurotoxic; also recorded: no neurotoxicity”. In data set [3], the viability at 24 h, 12.5 µM was 121%; the viability at 24 h, 25 µM was determined as 121%; the viability at 24 h, 50 µM came out at 111%; the viability at 24 h was no less than 70%. Besides, on hMAO-B (test concentration of 1 µM, read-out: Percentage of MAO-B inhibition ± SEM), the inhibition at 1 µM amounted to 11.3 ± 1.9%.
As to `O=c1oc2cc(OCCCN3CCCCC3)ccc2cc1-c1cn(Cc2ccccc2)nn1` [Compound 1q, 3-(1-Benzyl-1H-1,2,3-triazol-4-yl)-7-(3-(piperidin-1-yl)propoxy)-2H-chromen-2-one], in data set [1], the concentration for half-maximal inhibition (IC50) was found to be 1950 ± 86 nM and the SI is given as ~2 ^e,f. For the same compound, the IC50 on hMAO-A (95% confidence interval in brackets) is 31100 nM. For the same compound, the neurotoxicity result in data set [2] is listed as “non-neurotoxic”. In data set [3], the viability at 24 h, 12.5 µM is 99%; the viability at 24 h, 25 µM was 105%; the viability at 24 h, 50 µM was 84%; the viability at 24 h is no less than 70%. On hMAO-B, the half-maximal inhibitory concentration (IC50) was found to be 1690 nM and the MAO-B/A selectivity ratio result is reported as “greater than 18 fold”.
